Each structure is given as a SMILES string.

The test system of test [1] is Chemotherapeutic agent-caused constipation models of Balb/c mice. In words: Relieving effect on constipation caused by a chemotherapeutic agent (Examples 202-364). In kind it is in vivo. To be noted: for feces reduction rates compared with the chemotherapeutic agent group: administered before the chemotherapeutic agent, Table 4 and FIG. 4. The text has this:
Construction of mouse animal models: Chemotherapeutic agent-caused constipation models of Balb/c mice were constructed according to the administration mode and frequency of the chemotherapeutic agent as shown in Table 4. […] Thus, chemotherapeutic agent-caused constipation models of mice are very good models to mimic constipation caused by the chemotherapeutic agent.
Balb/c mice were fed for 1 week, and then divided into groups. The experiment was divided into a control group, a chemotherapeutic agent group, and a group of the compound as shown in Formula I, each of which comprised 10 mice, to perform the administration experiment, for which the administration dosage, mode, time and frequency were shown in Table 4. The control group: being injected or intragastrically administered with the same solvent as that used in the group of the compound as shown in Formula I (the administration mode and time were shown in Table 4), and then being injected or intragastrically administered with the same solvent as that used in the chemotherapeutic agent group (the administration mode was shown in Table 4); the chemotherapeutic agent group: being injected or intragastrically administered with the same solvent as that used in the group of the compound as shown in Formula I (the administration mode and time was shown in Table 4), and then being injected or intragastrically administered with the chemotherapeutic agent (the type, administration mode and dosage were shown in Table 4); the group of the compound as shown in Formula I: being injected or intragastrically administered with the compound as shown in Formula I (the administration mode and time was shown in Table 4), and then being administered with the chemotherapeutic agent (the administration mode and dosage were shown in Table 4).
The feces reduction rate was calculated with reference to the method of Ji Eun Kim (Lab Anim Res. 2016 December; 32(4): 231-240.). Feces reduction rate (%)=(the control group−the chemotherapeutic agent group or the group of the compound as shown in Formula I)/the control group*100%
It is regarded as effective remission when the feces reduction rate of mice in the group of the compound as shown in Formula I is reduced compared with that in the chemotherapeutic agent group.
The feces amount of mice within 3 hours was observed and recorded every day. At the end of the experiment, the number of mice in the group of the compound as shown in Formula I whose feces reduction rate was lower than that of mice in the chemotherapeutic agent group was recorded. Table 4 lists various animal experiment combinations of chemotherapeutic agents and the compound as shown in Formula I, as well as the corresponding experimental results.

In test [2] the test system is Chemotherapeutic agent-caused diarrhea models of Balb/c mice. In words: Relieving effect on diarrhea caused by a chemotherapeutic agent (Examples 1-201). In kind it is in vivo. To be noted: for diarrhea gradings compared with the chemotherapeutic agent group: administered before the chemotherapeutic agent, Table 3 and FIG. 2. An excerpt:
Construction of mouse animal models: Chemotherapeutic agent-caused diarrhea models of Balb/c mice were constructed according to the administration mode and frequency of the chemotherapeutic agent as shown in Table 3. After administration for several days, mice developed different extents of diarrhea symptoms (as shown in FIG. 1), which were similar to the conditions in human. Thus, chemotherapeutic agent-caused diarrhea models of mice are very good models to mimic diarrhea in human caused by the chemotherapeutic agent.
Balb/c mice were fed for 1 week, and then divided into groups. The experiment was divided into a control group, a chemotherapeutic agent group, and a group of the compound as shown in Formula I, each of which comprised 10 mice, to perform the administration experiment, for which the administration dosage, mode, time and frequency were shown in Table 3. The control group: being injected or intragastrically administered with the same solvent as that used in the group of the compound as shown in Formula I (the injection mode and time were shown in Table 3), and then being injected or intragastrically administered with the same solvent as that used in the chemotherapeutic agent group (the administration mode was shown in Table 3); the chemotherapeutic agent group: being injected or intragastrically administered with the same solvent as that used in the group of the compound as shown in Formula I (the administration mode and time were shown in Table 3), and then being injected or intragastrically administered with the chemotherapeutic agent (the type, administration mode and dosage were shown in Table 3); the group of the compound as shown in Formula I: being injected or intragastrically administered with the compound as shown in Formula I (the administration mode and time were shown in Table 3), and then being administered with the chemotherapeutic agent (the administration mode and dosage were shown in Table 3).
The scoring of diarrhea can refer to the method of Akinobu Kurita (Cancer Chemother Pharmacol 2000; 46:211-20.), Grade 0: normal feces; Grade 1: mild diarrhea, the stools is slightly wet and soft; Grade 2: moderate diarrhea, loose stools and mild perianal contamination; Grade 3: severe diarrhea, watery stools and accompanied by severe perianal staining (see FIG. 1). It is regarded as effective remission when the diarrhea grading of mice in the group of the compound as shown in Formula I is reduced compared with the average diarrhea grading of mice in the chemotherapeutic agent group.
The diarrhea grading of mice was observed and recorded every day. At the end of the experiment, the number of mice in the group of the compound as shown in Formula I whose diarrhea grading was lower than that of mice in the chemotherapeutic agent group was recorded. Table 3 lists various animal experiment combinations of chemotherapeutic agents and the compound as shown in Formula I, as well as the corresponding experimental results. (Relative remission rate %=the number of mice in the group of the compound as shown in Formula I whose diarrhea has been effectively relieved/the total number of mice in the group of the compound as shown in Formula I*100%. The establishment rate of diarrhea model in the chemotherapeutic agent group was 50%-70%, that is, about 5-7 of 10 mice developed diarrhea during the experiment, and there were cases of individual mice death or not developing diarrhea.)

`O=C1NCC2(CCCCC2)n2c1cc1cnc(Nc3ccc(N4CCC(N5CCOCC5)CC4)cn3)nc12` [Compound III]: the “Relative remission rate (%)” value is 50% in test [1] (Example 320, Fluorouracil 125 (F) and irinotecan 240 (I) mg/kg intraperitoneal injection single, compound subcutaneous injection 100 mg/kg single, 0.5 h before chemotherapeutic agent, cycle 7 days); 20% in test [1] (Example 321, Fluorouracil 125 (F) and irinotecan 240 (I) mg/kg intraperitoneal injection single, compound subcutaneous injection 100 mg/kg single, 24 h before chemotherapeutic agent, cycle 7 days); 30% in test [1] (Example 349, Fluorouracil 100 (F), oxaliplatin 5 (O), irinotecan 100 (I) and tetrahydrofolic acid 100 (L) mg/kg intraperitoneal injection single, compound oral administration 150 mg/kg single, 6 h before chemotherapeutic agent, cycle 7 days); 30% in test [1] (Example 350, Fluorouracil 100 (F), oxaliplatin 5 (O), irinotecan 100 (I) and tetrahydrofolic acid 100 (L) mg/kg intraperitoneal injection single, compound oral administration 150 mg/kg single, 12 h before chemotherapeutic agent, cycle 7 days); 50% in test [1] (Example 362, Etoposide 60 (E) and carboplatin 5 (C) mg/kg intraperitoneal injection single, compound oral administration 100 mg/kg single, 0.5 h before chemotherapeutic agent, cycle 10 days). The “feces reduction rates compared with the chemotherapeutic agent group” value in test [1] is on record as “reduced to different degrees”. The Relative remission rate in test [2] (Ex 89, Oxaliplatin 17.5 mg/kg intravenous single, compound 100 mg/kg intraperitoneal single 1 h before, cycle 8 days) was found to be 40%; in test [2] (Ex 90, Oxaliplatin 17.5 mg/kg intravenous single, compound 100 mg/kg intraperitoneal single 4 h before, cycle 8 days), 70%; in test [2] (Ex 91, Oxaliplatin 17.5 mg/kg intravenous single, compound 100 mg/kg intraperitoneal single 8 h before, cycle 8 days), 40%; in test [2] (Ex 178, Fluorouracil 50 + oxaliplatin 5 + irinotecan 50 + tetrahydrofolic acid 90 mg/kg intravenous single, compound 150 mg/kg oral single 0.5 h before, cycle 7 days), 30%; in test [2] (Ex 179, Fluorouracil 50 + oxaliplatin 5 + irinotecan 50 + tetrahydrofolic acid 90 mg/kg intravenous single, compound 150 mg/kg oral single 4 h before, cycle 7 days), 50%; in test [2] (Ex 180, Fluorouracil 50 + oxaliplatin 5 + irinotecan 50 + tetrahydrofolic acid 90 mg/kg intravenous single, compound 150 mg/kg oral single 8 h before, cycle 7 days) it was 40%. Also, the Relative remission rate is recorded as 40% in test [2] (Ex 181, Fluorouracil 50 + oxaliplatin 5 + irinotecan 50 + tetrahydrofolic acid 90 mg/kg intravenous single, compound 150 mg/kg oral single 12 h before, cycle 7 days); 20% in test [2] (Ex 182, Fluorouracil 50 + oxaliplatin 5 + irinotecan 50 + tetrahydrofolic acid 90 mg/kg intravenous single, compound 150 mg/kg oral single 24 h before, cycle 7 days); 60% in test [2] (Ex 199, Etoposide 60 + carboplatin 5 mg/kg intraperitoneal single, compound 100 mg/kg oral single 0.5 h before, cycle 10 days). The “diarrhea gradings compared with the chemotherapeutic agent group” value in test [2] is listed as “relieved to different degrees”.
As for `O=C1NCC2(CCCCC2)n2c1cc1cnc(Nc3ccc(N4CCNCC4)cn3)nc12` [Compound II], the “Relative remission rate (%)” value in test [1] (Example 283, Oxaliplatin intravenous injection 25 mg/kg single, compound intramuscular injection 100 mg/kg single, 1 h before chemotherapeutic agent, cycle 7 days) was 50%; in test [1] (Example 284, Oxaliplatin intravenous injection 25 mg/kg single, compound intramuscular injection 100 mg/kg single, 6 h before chemotherapeutic agent, cycle 7 days) it was 30%; in test [1] (Example 285, Oxaliplatin intravenous injection 25 mg/kg single, compound intramuscular injection 100 mg/kg single, 12 h before chemotherapeutic agent, cycle 7 days), 30%; in test [1] (Example 347, Fluorouracil 100 (F), oxaliplatin 5 (O), irinotecan 100 (I) and tetrahydrofolic acid 100 (L) mg/kg intraperitoneal injection single, compound intravenous injection 100 mg/kg single, 0.5 h before chemotherapeutic agent, cycle 7 days), 70%; in test [1] (Example 348, Fluorouracil 100 (F), oxaliplatin 5 (O), irinotecan 100 (I) and tetrahydrofolic acid 100 (L) mg/kg intraperitoneal injection single, compound intravenous injection 100 mg/kg single, 2 h before chemotherapeutic agent, cycle 7 days), 50%; in test [1] (Example 359, Gemcitabine (GEM) intraperitoneal injection 120 mg/kg single, compound oral administration 100 mg/kg single, 12 h before chemotherapeutic agent, cycle 8 days), 40%. Also, the “Relative remission rate (%)” value is recorded as 60% in test [1] (Example 361, Etoposide 60 (E) and carboplatin 5 (C) mg/kg intraperitoneal injection single, compound oral administration 100 mg/kg single, 2 h before chemotherapeutic agent, cycle 10 days); 30% in test [1] (Example 364, Gemcitabine 120 (G) and carboplatin 5 (C) mg/kg intravenous injection single, compound oral administration 100 mg/kg single, 24 h before chemotherapeutic agent, cycle 8 days). In addition, in test [1], the “feces reduction rates compared with the chemotherapeutic agent group” value was “reduced to different degrees”. Also, the Relative remission rate came out at 30% in test [2] (Ex 31, 5-Fu 125 mg/kg intraperitoneal single, compound 50 mg/kg intraperitoneal single 0.5 h before, cycle 10 days); 60% in test [2] (Ex 32, 5-Fu 125 mg/kg intraperitoneal single, compound 100 mg/kg intraperitoneal single 4 h before, cycle 10 days); 40% in test [2] (Ex 33, 5-Fu 125 mg/kg intraperitoneal single, compound 150 mg/kg intraperitoneal single 12 h before, cycle 10 days); 30% in test [2] (Ex 173, Fluorouracil 50 + oxaliplatin 5 + irinotecan 50 + tetrahydrofolic acid 90 mg/kg intraperitoneal single, compound 100 mg/kg oral single 0.5 h before, cycle 7 days); 30% in test [2] (Ex 174, Fluorouracil 50 + oxaliplatin 5 + irinotecan 50 + tetrahydrofolic acid 90 mg/kg intraperitoneal single, compound 100 mg/kg oral single 4 h before, cycle 7 days); 40% in test [2] (Ex 175, Fluorouracil 50 + oxaliplatin 5 + irinotecan 50 + tetrahydrofolic acid 90 mg/kg intraperitoneal single, compound 100 mg/kg oral single 8 h before, cycle 7 days). Moreover, the Relative remission rate in test [2] (Ex 176, Fluorouracil 50 + oxaliplatin 5 + irinotecan 50 + tetrahydrofolic acid 90 mg/kg intraperitoneal single, compound 100 mg/kg oral single 12 h before, cycle 7 days) was found to be 30%; in test [2] (Ex 177, Fluorouracil 50 + oxaliplatin 5 + irinotecan 50 + tetrahydrofolic acid 90 mg/kg intraperitoneal single, compound 100 mg/kg oral single 24 h before, cycle 7 days) it was 30%; in test [2] (Ex 197, Gemcitabine (GEM) 120 mg/kg intravenous single, compound 100 mg/kg oral single 24 h before, cycle 8 days), 40%; in test [2] (Ex 198, Etoposide 60 + carboplatin 5 mg/kg intraperitoneal single, compound 100 mg/kg oral single 2 h before, cycle 10 days), 50%. Also, the “diarrhea gradings compared with the chemotherapeutic agent group” value in test [2] is listed as “relieved to different degrees”.

(Values after patent US20240285634A1, “COMPOUND AND METHOD FOR TREATING CHEMOTHERAPY-ASSOCIATED GASTROINTESTINAL SIDE EFFECTS” (ONQUALITY PHARMACEUTICALS CHINA LTD., priority 2021, published 2024).)
